Test results published in US9018168B2, “Therapeutic method for treating congestive heart failure” (Madeleine Pharmaceuticals Pty Ltd, priority 2010, dated 2015).
Where two headings read alike, the source gives them in different places. No end group written: not given here.

Legend:
[1] = cited from earlier work
[2] = Expected increase in total circulating VSDL at originally selected doses; format: in vivo, human
Description: Since it was thought that subjects suffering significant CHF are unable to produce adequate endogenous amounts of natriuretic peptides to compensate for congestion, the present applicant had selected doses of exogenous VSDL infusion of 50 ng/kg/min, 100 ng/kg/min and 200 ng/kg/min for 60 minutes to ascertain the approximate amounts of exogenous VSDL required by late NHYA class III—NYHA class IV patients to reinstate homeostasis. Such doses were expected to result in an approximately 2-fold, 4-fold and 8-fold increase in total circulating VSDL, respectively. Further, the present applicant had particularly proposed an exogenous dose of VSDL at <100 ng/kg/min (for 60 mins) for the treatment of chronic CHF or ADCHF as a safe and effective dosage, since it has been identified that the release rate from the heart of VSDL with physiological stimuli is about 138 ng/kg body weight per minute^16 and similar dosages have been previously observed to cause a marked natriuresis and diuresis in healthy humans^17, 18 and, also, improved haemodynamic and renal parameters in persons with stable NYHA class III chronic CHF^10. The molar equivalent of the 100 ng/kg body weight dose (for 60 mins) is 26 pmol/kg body weight (for 60 mins). […] In particular, at 12.5 ng/kg/min (for 60 mins) and 25 ng/kg/min (for 60 mins). […]

[3] = Example 2: estimation of baseline and Cmax for VSDL following infusion (blood samples, mass spectroscopy); format: in vivo, human; settings: for half-life: read-out: estimated half-life (t1/2)
From the text: Following the surprising finding that beneficial effects for the treatment of chronic CHF can be achieved with doses that are much less than that which had been proposed, a study was undertaken to estimate the baseline levels of VSDL and Cmax (ie the peak VSDL concentration that is achieved) following infusion.
The baseline VSDL concentration (ie endogenous level) was estimated from an identical sample taken prior to infusion (ie “predose”).

[4] = tested on: patients with chronic, but stable, New York Heart Association (NYHA) Class III CHF; settings: cited from earlier work
[5] = tested on: subjects with chronic CHF or ADCHF (NYHA class III - NYHA class IV); assay: Example 1: treatment of ADCHF with iv administration of vessel dilator; format: in vivo, human
From the text: This example describes a study to examine whether VSDL administration to ADCHF patients will be safe and induce improvements in haemodynamic parameters, as well as renal, natriuretic and diuretic parameters, whilst regulating plasma volume and BP within clinically acceptable ranges and without seriously adverse side effects.
VSDL in the form of a white lyophilised powder (synthesised using standard protein synthesis method by Auspep Pty Ltd, Parkville, VIC, Australia), stored in an ultra low freezer (−80° C.), was reconstituted in a vial with 10 ml of 0.9% saline (preservative free) and aseptically transferred into a 20 ml syringe (that connects to a patient cannula) before use.
Initially, an iv dose of 12.5 ng/kg/min was infused into test subjects for 60 minutes with a syringe driver (Alaris Asena GS syringe driver; C are Fusion Corporation, San Diego, Calif., United States of America). This “safety dose” was chosen merely to trial the subjects for any adverse effects. Subsequently, a dose of 25 ng/kg/min (as infused for 60 minutes) was trialled. Additionally, a trial will be conducted with a dose of 50 ng/kg/min (for 60 minutes).
Test adult subjects, both male and female, showing either acute exacerbations of chronic CHF or ADCHF (ie in individuals who had not previously shown heart failure), were recruited for the study. The following inclusion and exclusion criteria were applied:
In order to be eligible, a subject must have chronic CHF or ADCHF (NYHA class III—NYHA class IV) defined as: • 1. Showing dyspnoea at rest or dyspnoea with minimal activity (ie difficulty breathing at rest while sitting, or difficulty breathing while lying flat or with one pillow, or difficulty breathing with minimal activity such as talking, eating); AND • 2. Showing at least one of the following signs: • Tachypnoea with respiratory rate >20 breaths per minute, OR • Pulmonary congestion/oedema with rales or crackles/crepitations at least a third above lung bases; AND • 3. At least one of the following objective measures: • Showing, by chest X-ray, pulmonary oedema/congestions OR • Circulating B-type natriuretic peptide (BNP) concentration of ≧400 pg/ml or circulating NT-proBNP concentration of ≧1000 pg/ml at presentation, OR • PCWP >20 mmHg OR • Showing systolic dysfunction within the last 12 months (EF<50%) as determined by TTE, nuclear testing, cardiac MRI or ventricular angiography); and be: • 4. Male and/or female, 18 years or older; and • 5. If a woman of child bearing potential, testing negative to 13-hCG. Exclusion Criteria: • 1. Evidence in the ED for Myocardial Infarction (MI) or high risk acute coronary syndrome within past 6 weeks, as determined by creatinine kinase (CK)/creatinine kinase muscle-brain isoenzyme (CK-MB) ≧2 times upper limit of normal or elevation of Troponin T at baseline >0.1 or as determined by Trans-Thoracic […] (TTE); • 2. Hypotension (SBP <90 mmHg), cardiogenic shock, volume depletion; • 3. Persistent, uncontrolled hypertension (SBP >180 mm Hg); • 4. Subjects with the presence of any CMR contra-indication (including PPM, cerebral aneurysm clips or non-MM approved metallic implant) are excluded from any MRI study component only; • 5. Congenital heart defects (including Ventricular Septal Defect, Atrial Septal Defect, Patent Ductus Arteriosus, Tetralogy of Fallot, and Tricuspid Atresia); • 6. Cardiac surgery within past 4 weeks; • 7. Diastolic heart failure (preserved left ventricular function—determined by known history, ie E:E prime ratio>15); • 8. Severe valvular heart disease: Aortic Stenosis <1.0 cm^2, any Idiopathic hypertrophic subaortic stenosis or Hypertrophic Obstructive Cardiomyopathy, acute Aortic Regurgitation grade 3 or 4 and Mitral Regurgitation grade 3 or 4; • 9. History of cerebrovascular accident (within past 4 weeks) as determined by MM or Computerised Tomography (CT) Scan; • 10. […]

[6] = 25 ng/kg/min iv for 60 mins, 24 hrs post-infusion
[7] = 25 ng/kg/min iv for 60 mins, Baseline
[8] = Subject #2, 12.5 ng/kg/min iv for 60 mins
[9] = Subject #3, 12.5 ng/kg/min iv for 60 mins
[10] = one subject, 25 ng/kg/min iv for 60 mins

## B-type natriuretic peptide [BNP, reference compound]
[1]; in vivo
  biological t1/2: < ½
  circulatory t1/2: ~3.1 min

## EVVPPQVLSEPNEEAGAALSPLPEVPPWTGEVSPAQR [VSDL]
[1]; previously reported
  biological t1/2: > 6 hours
  circulatory t1/2: 120 min
[2]; 100 ng/kg/min for 60 minutes
  expected increase in total circulating VSDL: ~4 fold
[2]; 200 ng/kg/min for 60 minutes
  expected increase in total circulating VSDL: ~8 fold
[3]; 0.5 hrs following infusion
  Corrected Concentration: 4.376 ng/mL
[3]; 1 hrs following infusion
  Corrected Concentration: 4.376 ng/mL
[3]; 1.5 hrs following infusion
  Corrected Concentration: 1.176 ng/mL
[3]; 2 hrs following infusion
  Corrected Concentration: 0.556 ng/mL
[3]; 3 hrs following infusion
  Corrected Concentration: 0.136 ng/mL
[3]; 4 hrs following infusion
  Corrected Concentration: 0.061 ng/mL
[3]; 5 hrs following infusion
  Corrected Concentration: 0.022 ng/mL
[3]; 6 hrs following infusion
  Corrected Concentration: 0.005 ng/mL
[3]; 12 hrs following infusion
  Corrected Concentration: 0.018 ng/mL
[3]; Predose
  Corrected Concentration: 0.024 ng/mL
[3]; human, blood, intravenous, terminal elimination rate using the LOQ of 0.2 ng/ml
  half-life: 20 min
[3]; human, blood, intravenous, using the point just below the LOQ, excluding and including the Cmax values
  half-life: 25 to 30 min
[3]; human, blood, intravenous, CHF patient (NYHA class III), following infusion
  Tmax: 30 min
[3]; human, blood, iv, 0.5 hrs following infusion, read-out: Concentration
  level at 0.5 h: 4.4 ng/mL
[3]; human, blood, iv, 1 hrs following infusion, read-out: Concentration
  level at 1 h: 4.4 ng/mL
[3]; human, blood, iv, 1.5 hrs following infusion, read-out: Concentration
  level at 1.5 h: 1.2 ng/mL
[3]; human, blood, iv, 2 hrs following infusion, read-out: Concentration
  level at 2 h: 0.58 ng/mL
[3]; human, blood, iv, 3 hrs following infusion, read-out: Concentration
  level at 3 h: 0.16 ng/mL
[3]; human, blood, iv, 4 hrs following infusion, read-out: Concentration
  level at 4 h: 0.085 ng/mL
[3]; human, blood, iv, 5 hrs following infusion, read-out: Concentration
  level at 5 h: 0.046 ng/mL
[3]; human, blood, iv, 6 hrs following infusion, read-out: Concentration
  level at 6 h: 0.029 ng/mL
[3]; human, blood, iv, 12 hrs following infusion, read-out: Concentration
  level at 12 h: 0.042 ng/mL
[3]; human, intravenous, CHF patient (NYHA class III), blood, following infusion, baseline-corrected
  Cmax: 4.38 ng/mL
[3]; measured concentration profile (FIG. 3)
  elimination of VSDL from the blood stream: does not clearly follow first order kinetics
[3]; predose blood sample, CHF patient (NYHA class III)
  baseline (endogenous) VSDL concentration: 0.024 ng/mL
[4]
  symptomatic side effects: without any symptomatic side effects
[5]; 12.5 ng/kg/min iv for 60 mins, three subjects
  safety risks seen by reviewers: no safety risks
[5]; [6]
  CK: 156 U/L
  CK-MB: 1.3 µg/L
  Troponin T: <0.02 µg/L
[5]; [7]
  CK: 188 U/L
  CK-MB: 2.0 µg/L
  Troponin T: <0.02 µg/L
[5]; [8]
  clinical state during the 24 hours following the infusion: stable during the 24 hours
  side-effects: global dyskinesis and no side-
  tolerability of infusion: infusion was well tolerated by
[5]; [9]
  clinical state during and within 24 hours following the infusion: clinically stable during this
  tolerability of infusion: subject tolerated the infusion
[5]; [10]
  safety risks seen by reviewers: no safety risks
  side effects: no side effects
  tolerability of infusion: well tolerated
